Data taken from patent publication US6831075B2, “Heterocyclic substituted pyrazolones” (Cephalon, Inc., priority 1999, dated 2004).

Tests used:
Format in all cases: biochemical
[1] = molecular target: T1, baculoviral GST-MLK1KD (Homo sapiens, UniProt P80192); experiment: Mixed Lineage Kinase-1 inhibition assay (Millipore Multiscreen TCA in-plate, 32P); conditions: 1 uM compound; 60 μM ATP
T1 construct: 1 μg/ml of baculoviral GST-MLK1KD; GST (N); host or cells: baculovirus expression system
Description: Inhibition of Mixed Lineage Kinase-1 Activity
The kinase activity of MLK1 was assessed using the Millipore Multiscreen TCA “in-plate” format as described for protein kinase C (Pitt & Lee, J. Biomol. Screening, 1: 47-51, 1996). Briefly, each 50-μl assay mixture contained 20 mM Hepes, pH 7.0, 1 mM EGTA, 10 mM MgCl2, 1 mM DTT, 25 mM β-glycerophosphate, 60 μM ATP, 0.25 μCi [γ-^32P]ATP, 0.1% BSA, 500 μg/ml myelin basic protein (UBI #13-104), 2% DMSO, 1 μM of test compound, and 1 μg/ml of baculoviral GST-MLK1KD. Samples were incubated for 15 min at 37° C. The reaction was stopped by adding ice cold 50% TCA and the protein were allowed to precipitate for 30 min at 4° C. The plates were then washed with ice cold 25% TCA. Supermix scintillation cocktail was added, and the plates were allowed to equilibrate for 1-2 hours prior to counting using the Wallac MicroBeta 1450 PLUS scintillation counter.

[2] = molecular target: T2, baculovirus-expressed human trkA cytoplasmic domain (Homo sapiens, UniProt P04629); experiment: trkA tyrosine kinase inhibition assay (ELISA-based); conditions: 1 uM compound; 40 μM ATP
T2 construct: baculovirus-expressed human trkA cytoplasmic domain; host or cells: baculovirus expression system
Description: Inhibition of trkA Tyrosine Kinase Activity
Selected heterocyclic substituted pyrazolones were tested for their ability to inhibit the kinase activity of baculovirus-expressed human trkA cytoplasmic domain using an ELISA-based assay as previously described (Angeles et al., Anal. Biochem. 236: 49-55, 1996). Briefly, a 96-well microtiter plate was coated with substrate solution (recombinant human phospholipase C-γl/glutathione S-transferase fusion protein (Rotin et al., EMBO J., 11: 559-567, 1992). Inhibition studies were performed in 100 μl assay mixtures containing 50 mM Hepes, pH 7.4, 40 μM ATP, 10 mM MnCl2, 0.1% BSA, 2% DMSO, and various concentrations of inhibitor. The reaction was initiated by addition of trkA kinase and allowed to proceed for 15 minutes at 37° C. An antibody to phosphotyrosine (UBI) was then added, followed by a secondary enzyme-conjugated antibody, alkaline phosphatase-labelled goat anti-mouse IgG (Bio-Rad). The activity of the bound enzyme was measured via an amplified detection system (Gibco-BRL). Inhibition data were analyzed using the sigmoidal dose-response (variable slope) equation in GraphPad Prism.

[3] = molecular target: T3, recombinant human baculoviral VEGFR2 cyctoplasmic domain (Homo sapiens, UniProt P35968); experiment: VEGFR2 kinase inhibition assay (ELISA-based, time-resolved fluorescence); conditions: 1 uM compound; 30 μM ATP
T3 construct: recombinant human baculoviral VEGFR2 cyctoplasmic domain; host or cells: baculovirus expression system
Description: Inhibition of Vascular Endothelial Growth Factor Receptor-2 Kinase Activity
Assay were performed as described for trkA kinase below. The 96-well microtiter plate (FluoroNUNC Maxisorp) was coated with 40 μg/ml recombinant human phospholipase C-γ1/glutathione S-transferase fusion protein. Inhibition studies were performed in 100 μl assay mixtures containing 50 mM HEPES, pH 7.4, 30 μM ATP, 10 mM MnCl2, 0.1% BSA, 2% DMSO, and 1 μM of test compound. The reaction was initiated by adding prephosphorylated recombinant human baculoviral VEGFR2 cyctoplasmic domain. The reaction was allowed to proceed for 15 minutes at 37° C. The detection antibody, eurpium-labeled anti-phosphotyrosine antibody (Wallac #CR04-100), was added at 1:5000 dilution in block buffer (3% BSA in TBST).

T1 sequence (P80192 144-412 limits assumed): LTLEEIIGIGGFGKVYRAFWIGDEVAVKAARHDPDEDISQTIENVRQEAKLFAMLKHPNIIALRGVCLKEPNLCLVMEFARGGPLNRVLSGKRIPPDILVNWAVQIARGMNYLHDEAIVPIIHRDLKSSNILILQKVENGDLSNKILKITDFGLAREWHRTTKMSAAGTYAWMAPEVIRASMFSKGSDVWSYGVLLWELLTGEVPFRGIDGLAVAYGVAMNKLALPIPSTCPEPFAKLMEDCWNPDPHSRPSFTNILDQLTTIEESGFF
T3 sequence (P35968 786-1356 limits assumed): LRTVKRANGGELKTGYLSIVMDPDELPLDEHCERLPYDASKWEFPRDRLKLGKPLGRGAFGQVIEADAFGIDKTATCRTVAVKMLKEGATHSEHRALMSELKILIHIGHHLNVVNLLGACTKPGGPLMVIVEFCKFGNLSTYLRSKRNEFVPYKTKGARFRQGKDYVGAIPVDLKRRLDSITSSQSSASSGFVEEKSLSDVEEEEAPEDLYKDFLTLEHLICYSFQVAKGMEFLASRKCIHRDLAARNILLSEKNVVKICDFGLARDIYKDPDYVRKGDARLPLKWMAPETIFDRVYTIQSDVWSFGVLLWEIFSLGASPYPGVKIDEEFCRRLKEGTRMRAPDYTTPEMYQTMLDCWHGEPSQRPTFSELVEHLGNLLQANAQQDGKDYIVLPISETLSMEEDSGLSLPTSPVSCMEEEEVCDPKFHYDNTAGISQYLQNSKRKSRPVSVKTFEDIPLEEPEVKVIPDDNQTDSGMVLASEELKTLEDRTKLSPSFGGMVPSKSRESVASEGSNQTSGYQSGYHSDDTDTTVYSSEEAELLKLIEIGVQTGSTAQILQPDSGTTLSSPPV
T2 sequence (P04629 440-796 limits assumed): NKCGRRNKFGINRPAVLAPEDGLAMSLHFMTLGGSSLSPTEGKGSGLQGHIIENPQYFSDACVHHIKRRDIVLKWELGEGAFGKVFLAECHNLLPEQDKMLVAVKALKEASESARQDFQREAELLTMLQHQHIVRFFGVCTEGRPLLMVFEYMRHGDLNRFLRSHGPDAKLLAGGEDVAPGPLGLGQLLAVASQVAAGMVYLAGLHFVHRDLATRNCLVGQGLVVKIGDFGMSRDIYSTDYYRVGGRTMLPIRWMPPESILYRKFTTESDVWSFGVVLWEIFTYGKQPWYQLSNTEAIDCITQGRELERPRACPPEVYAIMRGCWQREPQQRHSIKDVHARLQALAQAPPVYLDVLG

Row | Structure (SMILES) | MLK-1 Kinase % inhibition @ 1 uM [1] [%] | trkA % inhibition @ 1 uM [2] [%] | VEGFR-2 kinase % inhibition @ 1 uM [3] [%]
1 | Cc1cc(C)c(C=C2C(=O)NN=C2c2ccoc2)[nH]1 [Compound 1] | 12 | 24 | –
2 | Cc1cc(C)c(C=C2C(=O)NN=C2C2c3ccccc3Oc3ccccc32)[nH]1 [Compound 2] | −8 | 39 | 21
3 | Cc1cc(C)c(C=C2C(=O)NN=C2c2ccncc2)[nH]1 [Compound 3] | 2 | 60 | 39
4 | O=C1NN=C(c2ccoc2)C1=CC=C(c1ccccc1)c1ccccc1 [Compound 4] | 9 | 53 | 33
5 | CCc1c(C=C2C(=O)NN=C2c2ccoc2)[nH]c(C(=O)OCc2ccccc2)c1C [Compound 5] | 14 | 2 | −5
6 | Cc1c(I)[nH]c(C=C2C(=O)NN=C2c2ccoc2)c1I [Compound 6] | 25 | 31 | 9
7 | CCOC(=O)CCc1c(C(=O)OCC)[nH]c(C=C2C(=O)NN=C2c2ccoc2)c1CC(=O)OCC [Compound 7] | 9 | 33 | −3
8 | Cc1[nH]c(C=C2C(=O)NN=C2c2ccoc2)c(Br)c1Br [Compound 8] | 15 | 20 | 35
9 | O=C1NN=C(c2ccoc2)C1=Cc1c[nH]c2ccccc12 [Compound 9] | 22 | 41 | 49
10 | Cc1cc(C)c(C=C2C(=O)NN=C2c2cccnc2)[nH]1 [Compound 10] | 22 | 26 | 64
11 | COc1ccc2[nH]cc(C=C3C(=O)NN=C3c3ccoc3)c2c1 [Compound 11] | 21 | 65 | 50
12 | O=C1NN=C(c2ccoc2)C1=Cc1ccc[nH]1 [Compound 12] | 27 | 44 | 26
13 | Cc1nc(C)c(C2=NNC(=O)C2=Cc2c[nH]c3ccccc23)s1 [Compound 13] | 10 | 45 | 25
14 | Cc1cc(C)c(C=C2C(=O)NN=C2c2sc(C)nc2C)[nH]1 [Compound 14] | 8 | 35 | 13
15 | O=C1NN=C(c2ccoc2)C1=Cc1ncc[nH]1 [Compound 15] | −3 | 15 | 11
16 | COC(=O)c1ccc2[nH]cc(C=C3C(=O)NN=C3c3ccoc3)c2c1 [Compound 16] | 18 | 29 | 34
17 | O=C1NN=C(c2ccoc2)C1=Cc1c[nH]c2ccc(Cl)cc12 [Compound 17] | 6 | 52 | 48
18 | O=C1NN=C(c2ccoc2)C1=Cc1c[nH]c2cccc(OCc3ccccc3)c12 [Compound 18] | 14 | 70 | 12
19 | O=C1NN=C(c2ccoc2)C1=Cc1c[nH]c2ccc(F)cc12 [Compound 19] | 4 | 45 | 44
